Laboratory results from patent publication US9518107B2, “Pharmaceutical compositions containing polypeptides derived from α-1 antitrypsin and methods of use thereof” (YISSUM RESEARCH DEVELOPMENT COMPANY OF THE HEBREW …, priority 2010, dated 2016).

Tests used:
[1] = system: Female NZBW/F1 mice; experiment: Spontaneous lupus-like syndrome in NZBW/F1 mice (second SLE model); format: in vivo; details: FIG. 11B
[2] = system: Female Balb/C mice; experiment: Ovalbumin-induced asthma in mice, eosinophils in bronchoalveolar lavage; format: in vivo; details: UBE i.n. 50 ng/mouse on days 24 and 27, one hour before OVA; day 29; FIG. 21
Description: 20 ul of 5% Ovalbumin (OVA) was added to 8.75 ml of sterile saline, which was then added stepwise to a solution of 1.25 ml of 40 mg/ml ImjectAlum (Pierce), and subjected to rocking at room temperature for 30-60 minutes, to facilitate optimal alum absorption to the Ovalbumin (Alum/Ova). Female Balb/C mice were then injected with 200 ul of Alum/Ova i.p, according to the following protocol:
On Days 0 and 14, mice were injected i.p with OVA/Alum.
On day 24 mice were injected intranasally (i.n.) with. UBE/saline (50 ng/50 μl/mouse, 25 μl to each nostril) and then after one hour, mice were injected i.n with OVA (50 μg/50 μl/mouse, 25 μl to each nostril).
On Day 27, mice were injected i.n. UBE/saline (50 ng/50 μl/mouse, 25 μl to each nostril) and then 1 hour subsequently were again injected i.n. with OVA (50 μg/50 μl/mouse). Mice were then sacrificed on day 29, and bronchoalveolar fluid was obtained by lung lavage (1 ml of 10% FCS-heat inactivated in PBS), and the percent of eosinophils seen in lavage fluid versus white cell count was ascertained by microscopic evaluation of smears.

[3] = system: peritoneal macrophages; experiment: Oxidative burst of peritoneal macrophages (luminol luminescence, phorbol myristate acetate); format: cell-based, female C57BL/6 mice; details: 1 μg/ml UBE; FIG. 19
Description: Macrophages were harvested by peritoneal lavage of female C57BL/6 mice i.p. injected with thioglycolate. 0.2 ml cells (3×10^5/ml), luminol (200 μM), horseradish peroxidase (1.0 unit/ml) and UBE were suspended in Hank's balanced salt solution (HBSS) (final concentrations of the peptide in the reaction mixture are indicated in the figure). The reaction started by the addition of 1 μM phorbol myristate acetate. The reaction was performed in a 96-well plate. Luminescence was measured by Tecan spectrofluoro Plus.

[4] = system: Human CD4 cells; experiment: Cytokine profile in human CD4+ cells activated with anti CD3 and anti CD28 antibodies (Multiplex); format: cell-based; details: UBE 100 ng/ml, 72 hours
Description: Human CD4 cells were MACS separated from blood of healthy donors using the immunomagnetic separation system of Miltenyi, in accordance with manufacturer instructions. Cells were incubated (each well contained 0.5×106/0.5 ml) with human IL2 (100 U/ml) and human anti CD3 antibodies (1 ug/ml) and human anti CD28 antibodies (1 ug/ml) with or without UBE (100 ng/ml) for 72 hours in a CO2 (6%) incubator at 37° C. in multiwall plates. Thereafter plates were centrifuged and supernatants were collected and stored at −20° C. until cytokine analysis was conducted. Cytokines were determined by Multiplex system (BioRad). *p<0.02, **p<0.006 using students t-test for comparison between UBE-treated and control cells.

[5] = system: male MRL/lpr mice; experiment: Advanced stage of Systemic Lupus Erythematosus in MRL/lpr mice; format: in vivo; details: 1 μg/kg thrice a week from age of 22 weeks, 22 days; FIG. 10
Description: UBE (SEQ ID NO: 2; 1 μg/kg) was administered to male MRL/lpr mice thrice a week, starting at age of 22 weeks. At this age the mice are acutely affected and show a high level of proteinuria. Urine was obtained by spontaneous urination and the animals' urinary protein levels (mg/dl) were evaluated throughout the treatment period (22 days) using a commercial stick.

[6] = system: Female NZBW/F1 mice; experiment: Spontaneous lupus-like syndrome in NZBW/F1 mice (second SLE model); format: in vivo
Description: Female NZBW/F1 mice develop a lupus-like syndrome spontaneously. UBE (SEQ ID NO:2) (0.3 μg/kg) was administered to female NZBW/F1 mice daily (except for Saturday and Holidays), starting at the indicated time point (170 days) (n=10). Urine was obtained by spontaneous urination and the levels of protein (mg/dl) in the urine were evaluated throughout the treatment period using commercial sticks.
Quantitative histopathology analysis of the kidneys and lungs were also performed for this model (FIG. 12A-D). Kidneys were removed from control and UBE treated mice (0.3 lug/kg) then fixed in formalin, sliced, and stained by H&E. Representative histophathologies of the control versus UBE treated mice is shown FIGS. 12A versus 12B at 10× magnification, respectively. Note glomerular sclerosis (GS), thickening glomerular mesangium (G), protein accumulation in tubular lumen (PC), interstitial fibrosis (I) and perivascular lymphoid infiltration (lymphoid) in the control (12A) while normal appearance of kidney in the UBE-treated group (12B). The quantitative histopathology analysis with regard to tubular and interstitial damage is presented in FIG. 12C and FIG. 12D, respectively.
Quantitative histopathology analysis of the lungs was also performed for this model (FIG. 12E-G). Representative histophathologies of control versus UBE treated mice (0.3 μg/kg) is shown FIGS. 12E versus 12F at 10× magnification, respectively. Note heavy perivascular lymphoid infiltration (lymphoid) in the control samples (FIG. 12E) while normal appearance in the UBE-treated group (FIG. 12F).
In order to determine the levels of anti-dsDNA antibodies, blood was obtained by cardiac puncture of the NZBW/F1 mice at the indicated endpoint in UBE treatment, and the serum levels of anti-dsDNA antibodies and BLys (B lymphocyte stimulator) levels were determined by ELISA using a commercial kit (R&D Systems, Minneapolis, Minn., USA).
To evaluate the effect of UBE on lymphocyte function in NZBW/F1 mice, spleen cells and blood samples were isolated from control and UBE-treated (0.3 microgram per kilogram) mice and subjected to FACS analysis of double negative CD4−CD8− (expressed as percent CD3+) (FIG. 14).
Blood cells were similarly evaluated and representative results from control and UBE treated animals (0.3 μg/kg) are shown in FIGS. 14D and 14E, respectively.

[7] = system: arthritic mice; experiment: Collagen type II induced arthritis, joint swelling; format: in vivo; details: 1 μg/kg thrice a week, from five days after second immunization; FIG. 16
Description: Chick collagen type II (2.0 mg) was incubated overnight in 0.01 M acetic acid (0.9 ml) at 4° C. The resulting solution was emulsified with equal volume (1.0 ml) of […] Freund's Adjuvant containing 5.0 mg heat-killed Mycobacterium tuberculosis. Thereafter, the animal was injected intradermally in the tail base with 100 μl of the emulsion and an additional immunization was repeated 21 days later. Five days later, UBE or UBE1 polypeptide were administered (1 μg/kg thrice a week). The animals were evaluated for the difference in joint thickness (mm) between the indicated time intervals and prior to immunization.

## SMPPIVRFDHPFLFIIFEEHTQSPLFVGKVVDPTHK (listed as Mus musculus) [UBE, 36-mer peptide corresponding to residues 378-413 of Mus musculus alpha-1-antitrypsin (serpin a1c)]
[1]; UBE 1 μg/kg
  proteinuria: reduced proteinuria in a significant manner
[1]; UBE 3 μg/kg
  proteinuria: reduced proteinuria in a significant manner
[2]
  eosinophil concentration in lavage fluid (percent of eosinophils versus white cell count): dramatic reduction
[3]
  oxidative burst of peritoneal macrophages (luminescence): suppressed
[4]; FIG. 22A-G
  inflammatory mediators overall (IL6, IL17A, IL21, IL22, IL23, IL31, IFNγ): overall trend in reduced inflammatory mediators
[4]; FIG. 22D
  IL22 production: significantly reduced
[4]; FIG. 22E
  IL23 production: significantly reduced
[4]; FIG. 22F
  IL31 production: significantly reduced
[5]
  proteinuria (urinary protein): significant reduction
[6]; UBE 0.3 μg/kg daily from 170 days, FIG. 11A
  rise in urinary protein levels (proteinuria): abrogated
[6]; UBE 0.3 μg/kg, FIG. 12C
  pathological score of the tubular areas (kidney histopathology): significant reduction
[6]; UBE 0.3 μg/kg, FIG. 12D
  pathological score of the interstitial areas (kidney histopathology): significant reduction
[6]; UBE 0.3 μg/kg, FIG. 12G
  pathological score, lung parenchymal damage: significant reduction
[6]; UBE 0.3 μg/kg, FIG. 13A
  serum BLys (B lymphocyte stimulator) level, ELISA: significant reduction
[6]; UBE 0.3 μg/kg, FIG. 13B
  serum anti-dsDNA antibody level, ELISA: significant reduction
[6]; blood, UBE 0.3 μg/kg, FIG. 14F
  double negative CD4−CD8− cells, FACS: dramatically reduced
[6]; spleen, UBE 0.3 μg/kg, FIG. 14C
  double negative CD4−CD8− cells (percent CD3+), FACS: dramatically reduced
[7]
  joint swelling (difference in joint thickness): reduction in joint swelling
